US7605227B2, “Melanoma antigen peptide analogues” (MannKind Corporation, priority 2005, dated 2009)
Square brackets hold non-standard residues; d marks the D form. Ends that are not written are not given here. Peptide text beside a SMILES is read from it. Phg = N[C@H](C(=O)O)c1ccccc1; Nva = CCC[C@H](N)C(=O)O

Key:
HLA-A*0201 = HLA-A*0201 (Homo sapiens, UniProt P04439, D140Y/D185E/D98H/E176V/E277Q/G131W/G231S/I119V/I121R/I166T/I218V/L300P/L318F/N151K/N90K/P208A/P217A/Q86G/Q94H/R138H/R169H/T345S); experiment: Peptide binding using T2 cells (SSX-2 41-49 analogs); conditions: half maximal binding of wild-type peptide relative to analog; native = 1.0
Source text: Thus, at limiting concentrations of peptide, it is a measurement of Kon mostly and at saturation levels of peptide it is a measurement of both Kon and Koff.

[1] = test system: T cell lines against a natural (non-mutated) epitope (SSX-241-49); experiment: Cross-reactivity and functional avidity: IFN-gamma from T cell lines against natural SSX-2 41-49 epitope; type: cell-based, HHD transgenic mice; conditions: IFN-gamma from T cell line raised against native SSX-2 41-49; native = 1, lower = more active;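 further: peptide analogs tested ex vivo with competent APCs, IFN-gamma in supernatant measured by ELISA, readouts include minimal triggering concentration, peak effect and concentration at peak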
624.38 melanoma cells = experiment: Plasmid prime, SSX-2 peptide boost, ex vivo cytotoxicity against human tumor cells; type: in vivo, mice; conditions: ex vivo after boost
Experimental: Eight groups of mice (n=4) were immunized with plasmid expressing SSX-241-49 natural epitope by direct inoculation into the inguinal lymph nodes with 25 μg in 25 μl of PBS/each lymph node at day 0, 3, 14 and 17. This was followed by two additional peptide boosts (similar amount) at day 28 and 31, using a negative control peptide (Melan A 26-35 “EAA”), natural peptide or analogs as shown in FIG. 9.

[2] = test system: target cells coated with natural peptide; experiment: Plasmid prime, SSX-2 peptide boost, in vivo cytotoxicity (CFSE); design: species or system HHD mice; conditions: spleen and blood; targets coated with 20 μg/ml and 1 μg/ml natural peptide
Experimental: Eight groups of mice (n=4) were immunized with plasmid expressing SSX-241-49 natural epitope, by direct inoculation into the inguinal lymph nodes with 25 μg in 25 μl of PBS/each lymph node at day 0, 3, 14 and 17. This was followed by two additional peptide boosts (similar amount) at day 28 and 31, using a negative control peptide (Melan A 26-35 “EAA”), natural peptide or analogs as shown in FIG. 9.
To evaluate the in vivo response against natural peptide, splenocytes were isolated from littermate control HHD mice and incubated with 20 μg/mL or 1 μg/ml of natural peptide for 2 hours. These cells were then stained with CFSE^hi fluorescence (4.0 μM or 1 μM for 15 minutes) and intravenously co-injected into immunized mice with an equal number of control splenocytes stained with CFSE^lo fluorescence (0.4 μM). Eighteen hours later the specific elimination of target cells was measured by removing spleen and PBMC from challenged animals and measuring CFSE fluorescence by flow cytometry. The relative depletion of the populations corresponding to peptide loaded splenocytes was calculated relative to the control (unloaded) population and expressed as % specific lysis. FIGS. 10 (spleen) and 11 (blood) show the in vivo cytotoxicity elicited by the regimens described in FIG. 7.

[3] = test system: T cells that recognized native PSMA288-297 peptide; experiment: Peptide immunization with PSMA analogs, IFN-gamma ELISPOT against native peptide; type: in vivo, HHD transgenic mice; conditions: peptide + pI:C intranodal immunization
Experimental: Groups of HHD transgenic mice (n=8) were immunized with peptide (natural epitope PSMA288-297, or analogs bearing substitutions at primary or secondary anchor residues) by direct inoculation into the inguinal lymph nodes, with 25 μg in 25 μl of PBS+12.5 μg of pI:C to each lymph node at day 0, 3, 14 and 17.
Mice were sacrificed at 10 days after the last boost, and splenocytes prepared and assessed for IFN-γ production by ELISPOT analysis. […] At 48 hours after incubation, the assay was developed and the frequency of cytokine-producing T cells that recognized native PSMA288-297 peptide was automatically counted. The data is represented in FIG. 22 as the number of spot forming colonies/well (mean of triplicates±SD). […] To the extent that the poor immunogenicity of the native epitope reflects tolerance, the improved activity of these analogs represents tolerance breaking.

[4] = test system: splenocytes stimulated with wild-type peptide NY-ESO-1157-165; experiment: NY-ESO-1 boost, ex vivo IFN-gamma production by splenocytes (ELISA); type: in vivo, mice; conditions: 10 μM wild-type peptide, 3 and 6 days
Source text: Supernatants were harvested and the concentration of IFN-γ measured by ELISA.

[5] = test system: target cells coated with wild-type peptide; experiment: Plasmid prime, NY-ESO-1 peptide boost, in vivo cytotoxicity (CFSE); design: species or system HHD mice; conditions: plasmid entrain, peptide amplify; targets coated with wild-type NY-ESO-1 peptide
Experimental: These cells were then stained with CFSE^hi and CFSE^med fluorescence (4.0 μM or 1 μM, respectively, for 15 minutes) and intravenously co-injected into immunized mice with an equal number of control splenocytes stained with CFSE^lo fluorescence (0.4 μM). Eighteen hours later the specific elimination of target cells was measured by removing the spleens and PBMC from challenged animals and measuring CFSE fluorescence by flow cytometry. The relative depletion of the populations corresponding to peptide loaded splenocytes was calculated relative to the control (unloaded) population and expressed as % specific lysis.

[6] = test system: PRAME+ A2+ 624.38 melanoma cells; experiment: PRAME immunization, ex vivo cytotoxicity against human tumor cells; type: in vivo, HHD transgenic mice; conditions: mouse, in vivo
Experimental: This was followed by two peptide boosts (2.5 μg) at day 28 and 31, with the analog L426Nva L433Nle.

Relative affinity (1/RA) (HLA-A*0201)	Compound	Cross-reactivity and fct avidity (native to analogs)* [1]	further results
2.4	CCC[C@H](NC(=O)[C@H](CCCCN)NC(=O)[C@H](CCC(=O)O)NC(=O)[C@H](CO)NC(=O)[C@@H](NC(=O)[C@@H](N)Cc1ccccc1)C(C)C)C(=O)N[C@@H](Cc1ccccc1)C(=O)N[C@@H](Cc1ccc(O)cc1)C(=O)N[C@H](C(=O)O)C(C)C [SSX2 41-49 (K41F, A42V, I46Nva), FVSEK(Nva)FYV] (H-FVSEK[Nva]FYV-OH)	1	
1.6	CC[C@H](C)[C@H](NC(=O)[C@H](Cc1ccc(O)cc1)NC(=O)[C@H](Cc1ccccc1)NC(=O)[C@@H](NC(=O)[C@H](CCCCN)NC(=O)[C@H](CCC(=O)O)NC(=O)[C@H](CO)NC(=O)[C@@H](NC(=O)[C@@H](N)Cc1ccccc1)C(C)C)[C@@H](C)CC)C(=O)O [SSX2 41-49 (K41F, A42V, V49I)]	0.3	cytotoxicity against human tumor cells, in words (624.38 melanoma cells): increased cytotoxicity against human tumor cells
1.7	CC[C@H](C)[C@H](NC(=O)[C@H](CCCCN)NC(=O)[C@H](CCC(=O)O)NC(=O)[C@H](CO)NC(=O)[C@@H](NC(=O)[C@@H](N)Cc1ccccc1)C(C)C)C(=O)N[C@@H](Cc1ccccc1)C(=O)N[C@@H](Cc1ccccc1)C(=O)N[C@H](C(=O)O)C(C)C [SSX2 41-49 (K41F, A42V, Y48F)]	10	
2.5	CC[C@H](C)[C@H](NC(=O)[C@H](CCCCN)NC(=O)[C@H](CCC(=O)O)NC(=O)[C@H](CO)NC(=O)[C@@H](NC(=O)[C@@H](N)Cc1ccccc1)C(C)C)C(=O)N[C@@H](Cc1ccccc1)C(=O)N[C@H](C(=O)N[C@H](C(=O)O)C(C)C)c1ccccc1 [SSX2 41-49 (K41F, A42V, Y48Phg), FVSEKIF(Phg)V] (H-FVSEKIF[Phg]V-OH)	>10	
1.0	CC[C@H](C)[C@H](NC(=O)[C@H](CCCCN)NC(=O)[C@H](CCC(=O)O)NC(=O)[C@H](CO)NC(=O)[C@@H](NC(=O)[C@@H](N)Cc1ccc(O)cc1)C(C)C)C(=O)N[C@@H](Cc1ccccc1)C(=O)N[C@@H](Cc1ccc(O)cc1)C(=O)N[C@H](C(=O)O)C(C)C [SSX2 41-49 (K41Y, A42V)]	0.1	
1.5	FASEKIFYV [SSX2 41-49 (K41F)]	0.3	in vivo cytotoxicity (% specific lysis), in words [2]: increased activity relative to the natural peptide
2.7	FISEKIFYV [SSX2 41-49 (K41F, A42I)]	0.3	
1.1	FVSDKIFYV [SSX2 41-49 (K41F, A42V, E44D)]	>10	
3.9	FVSEKIFSV [SSX2 41-49 (K41F, A42V, Y48S)]	>10	
3.8	FVSEKIFTV [SSX2 41-49 (K41F, A42V, Y48T)]	>10	
0.8	FVSEKIFYM [SSX2 41-49 (K41F, A42V, V49M)]	>10	
3.1	FVSEKIFYV [SSX2 41-49 (K41F, A42V)]	0.1	
2.4	FVSEKLFSA	>10	
2.6	FVSEKLFTV [SSX2 41-49 (K41F, A42V, I46L, Y48T)]	>10	
1.9	FVSEKLFYV [SSX2 41-49 (K41F, A42V, I46L)]	3	
0.4	FVSQKIFYV [SSX2 41-49 (K41F, A42V, E44Q)]	10	
	GLWSIPVHPI [Peptide P290W]		IFN-γ ELISPOT response against native epitope, in words [3]: increased priming of immune responses against the native epitope

Relative affinity (1/RA) (HLA-A*0201)	Compound	Cross-reactivity and fct avidity (native to analogs)* [1]	further results
	I297Nva: PSMA288-297 analog with Nva for Ile at position 297 [Peptide I297Nva]		IFN-γ ELISPOT response against native epitope, in words [3]: slightly higher (but significant) activity than the native peptide
1.0	KASEKIFYI [SSX2 41-49 (V49I)]	10	
1.7	KISEKIFYV [SSX2 41-49 (A42I)]	3	
2.6	KLSEKIFYI [SSX2 41-49 (A42L, V49I)]	0.03	
1.7	KMSEKIFYV [SSX2 41-49 (A42M)]	0.1	
	L158V C165V: NY-ESO-1 157-165 analog, L158V and C165V (SVLMWITQV; UniProt P78358 157-165, looked up, variant L158V C165V)		IFN-gamma production upon ex vivo re-stimulation, in words [4]: increased amounts of IFN-gamma; in vivo cytotoxicity (% specific lysis), in words [5]: effect in the same range with wild-type peptide or the C165V mutant
	S157F L158V C165V: NY-ESO-1 157-165 analog, triple mutant (FVLMWITQV; UniProt P78358 157-165, looked up, variant S157F L158V C165V)		IFN-gamma production upon ex vivo re-stimulation, in words [4]: increased amounts of IFN-gamma
	S157K L158V C165V: NY-ESO-1 157-165 analog, triple mutant (KVLMWITQV; UniProt P78358 157-165, looked up, variant S157K L158V C165V)		in vivo cytotoxicity (% specific lysis), in words [5]: effect in the same range with wild-type peptide or the C165V mutant
	SLLQHLIGL [PRAME 425-433, reference compound]		ex vivo cytotoxicity against A2+ PRAME+ 624.38 cells, in words [6]: able to lyse human tumor cells
	SNvaLMWITQV (S[Nva]LMWITQV) [Nyeso-1 157-165 (L158Nva, C165V))]		IFN-gamma production upon ex vivo re-stimulation, in words [4]: large levels of IFN-gamma more rapidly; in vivo cytotoxicity (% specific lysis), in words [5]: substantial, constant cytotoxicity
3.3	WLSEKIFYV [SSX2 41-49 (K41W, A42L)]	0.3	
2.9	WMSEKIFYV [SSX2 41-49 (K41W, A42M)]	1	
3.0	WVSEKIFYV [SSX2 41-49 (K41W, A42V)]	1	
1.7	YASEKIFYV [SSX2 41-49 (K41Y)]	3	in vivo cytotoxicity (% specific lysis), in words [2]: increased activity relative to the natural peptide
0.6	YMSEKIFYV [SSX2 41-49 (K41Y, A42M)]	3	
	{Abu}LPSIPVHPI [Peptide G288Abu]		IFN-γ ELISPOT response against native epitope, in words [3]: slightly higher (but significant) activity than the native peptide
